Literature values, collected in patent US20130236944A1, “METHODS FOR THE INACTIVATION OF ANTIBIOTICS” (priority 2011, published 2013).

Settings: after 180 days; Hektoen et al. (1995)

Structure (SMILES) | degradation in marine sediments
CN(C)[C@@H]1C(O)=C(C(N)=O)C(=O)[C@@]2(O)C(O)=C3C(=O)c4c(O)cccc4[C@@](C)(O)[C@H]3[C@H](O)[C@@H]12 [oxytetracycline] | no degradation
CCn1cc(C(=O)O)c(=O)c2cc3c(cc21)OCO3 [oxolanic acid] | no degradation
